“Also recorded” adds a separate entry of the source. Where two headings read alike, the source gives them in different places.
Legend:
[1] = system: SW48 cell line (gastric); assay: MTT cytotoxicity assay, SW48; assay type: cell-based; settings: MTT assay, 72 hour incubation
Protocol: (§1) Tumor cell lines were maintained in RPMI1640 medium supplemented with 10% heat-inactivated fetal bovine serum, 2 mM L-glutamine and 1 mM sodium pyruvate. 1800 cells per well were seeded in a volume of 180 μl in a 96-well flat bottom polystyrene plate. The cells were allowed to adhere overnight at 37° C. in a CO2 incubator. Ligands were initially formulated in DMSO, and stocks stored at −80° C. They were then further formulated at lox concentration in RPMI1640 medium. 20 ul of diluted samples were added into each treatment well. On each plate, blank wells with no cells, and untreated wells containing cells, were included. Plates were then cultured at 37° C. in a CO2 incubator for 72 hrs. Cytotoxicity was evaluated using a tetrazolium salt-based assay, the MTT assay. After 72 hours, the supernatant was removed from each well and 200 μl of a sterile filtered 500 μg/ml MTT solution in water added to each well. The plates were then incubated at 37° C. in a CO2 incubator for 4 hrs. The supernatant was then removed and the formazan crystals formed solubilized by adding 150 μl of DMSO to each well. The plate was then read on a plate reader at 540 nm, and percentage cell survival calculated as follows: ((mean absorbance treated wells at concentration x−mean absorbance blank wells)[…](mean absorbance untreated wells at concentration x−mean absorbance blank wells))×100. Data were plotted as concentration in nM vs. % cell survival in Microsoft Excel, and IC50 values (concentration where cell survival is reduced by a half) were determined from the graph.

[2] = system: SW620 cell line (gastric); assay: MTT cytotoxicity assay, SW620; assay type: cell-based; settings: MTT assay, 72 hour incubation, read-out: Cytotoxicity SW620 (72 hours)
Protocol: as §1

[3] = system: LIM1215 cell line (gastric); assay: MTT cytotoxicity assay, LIM1215; assay type: cell-based; settings: MTT assay, 72 hour incubation, read-out: Cytotoxicity LIM1215 (72 hours)
Protocol: as §1

[4] = system: FaDu (head and neck cancer) cell line; assay: MTT cytotoxicity assay, FaDu; assay type: cell-based; settings: Homo sapiens, read-out: Cytotoxicity FaDu (nM, 72 hour)
Protocol: as §1

[5] = system: PC3 (prostate) cell line; assay: MTT cytotoxicity assay, PC3; assay type: cell-based; settings: read-out: Cytotoxicity PC3 (nM, 72 hour)
Protocol: as §1

[6] = system: three fluorescently labelled DNA sequences shown in FIG. 17; assay: FRET DNA melting, the three DNA sequences shown in FIG. 17 together; assay type: binding; settings: for effect on melting temperature / DNA stabilisation: different concentrations, all three sequences, vs control DNA
Source text: Further FRET DNA melting studies were undertaken on a number of molecules using three fluorescently labelled sequences. The sequences (FIG. 17) were designed to provide additional evidence that the series can form inter- and intrastrand cross-links. Inosines were inserted in place of traditional DNA bases in some cases to limit the number of binding sites available for the compounds to interact with. The short duplexes used in this FRET study are relatively unstable in the duplex form with a melting temperature below 30° C. so that, in the absence of ligand, a large part of the melting occurs below the starting temperature of the experiment. […] Increasing concentrations of 13 cause a greater amount of the melting transition to appear at the higher temperature (i.e. a greater number of the DNA molecules are cross-linked). A greater effect for 5′-AIIAGAITTTI′-3′ can be observed at lower concentrations of 13.
Oligonucleotides were obtained from ATDbio (Southampton, UK) in lyophilised form. They were labelled with a fluorophore molecule (F=fluorescein) at the 5′-end and a quencher molecule (Q=dabcyl) at the 3′-end of the complementary strand. Each oligonucleotide was dissolved in distilled H2O to form stock solutions of 100 PM. Working solutions of 5 μM were prepared by diluting the stock solution with distilled H2O.
The following buffers were used: 250 mM phosphate buffer pH 7.4 (consisting of sodium dihydrogen phosphate and sodium phosphate diluted in distilled H2O) and 5 M sodium chloride buffer. A11 buffers and distilled H2O were filtered through a […] filter prior to use.
For the FRET experiments a stock solutions were prepared by dissolving compound (such as compound 13) in DMSO to give a concentration of 10 mM. From this stock solution, working solutions of the desired concentration were prepared by diluting the stock solution with distilled H2O.
The reaction mixture was comprised of 4 μL of 250 mM phosphate buffer (final concentration of 50 mM), 4 μL flourophor and 4 μL quencher molecule of the appropriate oligonucleotide for a final concentration of 0.2 PM, 4 μL 5 M sodium chloride (final concentration of 1 M NaCl), and 4 μL of distilled H2O. This mixture was heated in an Eppendorf tube at 90° C. for 1 min and slowly cooled down to room temperature. This process was carried out to anneal the single strands to double-stranded DNA. Following this, 4 μL of the ligand was added in the desired concentration and the mixture incubated overnight either at room temperature or 4° C. A control sample of DNA only was prepared by mixing 4 μL 250 mM phosphate buffer (final concentration of 50 mM) with 4 μL fluorophore-labelled and 4 μL quencher-labelled oligonucleotides (of the appropriate sequence) to give a final concentration of 0.2 PM, 4 μL 5 M sodium chloride (final concentration of 1 M NaCl) and 4 μL distilled H2O. This mixture was analysed without prior annealing.
Fluorescence melting profiles were measured using a Roche LightCycler using a total reaction volume of 20 μL. Initially, the samples were denatured by heating to 95° C. at a rate of 1° C. min^−1. The samples were then maintained at 95° C. for 5 min before annealing by cooling to 25° C. at 1° C. min^−1. The samples were then held at 25° C. for a further 5 min and finally melted by heating to 95° C. at 1° C. min^−1. Annealing steps and melting steps were all recorded and changes in fluorescence were measured at 520 nm.
Tm values were obtained from the first derivates of the melting profiles using the Roche LightCycler software.

[7] = Homo sapiens, SW48, read-out: Cytotoxicity SW48 (72 hrs)

Structure (SMILES)	IC50 [1, 7] [nM]	IC50 ([2]; Homo sapiens, SW-620) [nM]	IC50 ([3]; LIM1215) [nM]	effect on melting temperature / DNA stabilisation [6]	also measured
CC(C)(C)OC(=O)N1C[C@@H](CCl)c2c1cc(O)c1ccccc21 [Compound 10, tert-Butyl (S)-1-(chloromethyl)-5-hydroxy-1,2-dihydro-3H-benzo[e]indole-3-carboxylate]	2920	2000	1270	–	–
COc1cc2c(cc1OCCCCCC(=O)N1C[C@@H](CCl)c3c1cc(O)c1ccccc31)N=C[C@@H]1CCCCN1C2=O [Compound 24, (S)-3-((6-((S)-1-(Chloromethyl)-5-hydroxy-1,2-dihydro-3H-benzo[e]indol-3-yl)-6-oxohexyl)oxy)-2-methoxy-7,8,9,10-tetrahydrobenzo-[e]pyrido[1,2-a][1,4]diazepin-12(6aH)-one]	–	–	–	–	IC50 ([4]; MTT assay, 72 hour incubation): 1.83 nM; IC50 ([5]; MTT assay, 72 hour incubation): 0.12 nM
COc1cc2c(cc1OCCCC(=O)N1C[C@@H](CCl)c3c1cc(O)c1ccccc31)N=C[C@@H]1Cc3ccccc3CN1C2=O [Compound 53, (S)-3-(4-((S)-1-(Chloromethyl)-5-hydroxy-1,2-dihydro-3H-benzo[e]indol-3-yl)-4-oxobutoxy)-2-methoxy-7,12-dihydrobenzo[5,6][1,4]-diazepino[1,2-b]isoquinolin-14(6aH)-one]	–	–	–	–	IC50 ([4]; MTT assay, 72 hour incubation): 0.65 nM; IC50 ([5]; MTT assay, 72 hour incubation): 0.02 nM
COc1cc2c(cc1OCCCC(=O)N1C[C@@H](CCl)c3c1cc(OC(=O)N1CCN(C)CC1)c1ccccc31)N=C[C@@H]1CCCCN1C2=O [Compound 55, (S)-1-(Chloromethyl)-3-(4-(((S)-2-methoxy-12-oxo-6a,7,8,9,10, 12-hexahydrobenzo[e]pyrido[1,2-a][1,4]diazepin-3-yl)oxy)butanoyl)-2,3-dihydro-1H-benzo[e]indol-5-yl 4-methylpiperazine-1-carboxylate]	–	–	–	–	IC50 ([4]; 72 h): 1.5 nM; IC50 ([5]; 72 h): 0.02 nM
CC(C)(C)OC(=O)N1CC2CC23C1=CC(=O)c1ccccc13 [Compound 83, tert-Butyl (8bR,9aS)-4-oxo-9,9a-dihydro-1H-benzo[e]cyclopropa[c]indole-2(4H)-carboxylate]	–	–	–	do not increase	degree of DNA stabilisation ([6]; middle sequence and bottom sequence in FIG. 17 (both AT-rich)): very small degree of stabilisation; IC50 ([1]; read-out: Cytotoxicity SW48 (72 hrs)): 4390 nM; IC50 [2]: 3510 nM; IC50 [3]: 2890 nM
COc1cc2c(cc1OCc1c(C(=O)N3C[C@@H](CCl)c4c3cc(O)c3ccccc43)sc3ccccc13)N=C[C@@H]1CCCCN1C2=O [Compound 91, (S)-3-((2-((S)-1-(Chloromethyl)-5-hydroxy-2,3-dihydro-1H-benzo[e]indole-3-carbonyl)benzo[b]thiophen-3-yl)methoxy)-2-methoxy-7,8,9,10-tetrahydrobenzo[e]pyrido[1,2-a][1,4]diazepin-12(6aH)-one]	2320	2610	2210	–	–
COc1cc2c(cc1OCc1cccc(CC(=O)N3C[C@@H](CCl)c4c3cc(O)c3ccccc43)c1)N=C[C@@H]1Cc3ccccc3CN1C2=O [Compound 108, (S)-3-((3-(2-((S)-1-(Chloromethyl)-5-hydroxy-1,2-dihydro-3H-benzo[e]indol-3-yl)-2-oxoethyl)benzyl)oxy)-2-methoxy-7,12-dihydrobenzo[5,6][1,4]diazepino[1,2-b]isoquinolin-14(6aH)-one]	–	0.045	0.78	–	IC50 ([1]; Homo sapiens, SW48, read-out: IC50 value in SW48): 0.004 nM
COc1cc2c(cc1OCc1cccc(CC(=O)N3C[C@@H](CCl)c4c3cc(O)c3ccccc43)c1)NC(=O)[C@@H]1CCCCN1C2=O [Compound 139, (S)-3-((3-(2-((S)-1-(Chloromethyl)-5-hydroxy-1,2-dihydro-3H-benzo[e]indol-3-yl)-2-oxoethyl)benzyl)oxy)-2-methoxy-7,8,9,10-tetrahydrobenzo[e]pyrido[1,2-a][1,4]diazepine-6,12(5H,6aH)-dione]	0.95	13.5	12	–	–
COc1cc2c(cc1OCc1cccc(CC(=O)N3C[C@@H](C)c4c3cc(O)c3ccccc43)c1)N=C[C@@H]1CCCCN1C2=O [Compound 145, (S)-3-((3-(2-((S)-5-Hydroxy-1-methyl-1,2-dihydro-3H-benzo[e]indol-3-yl)-2-oxoethyl)benzyl)oxy)-2-methoxy-7,8,9,10-tetrahydrobenzo[e]pyrido[1,2-a][1,4]diazepin-12(6aH)-one]	32.1	350	137	–	–
COc1cc2c(cc1OCCCC(=O)N1C[C@@H](CCl)c3c1cc(O)c1ccccc31)NC(=O)[C@@H]1CCCCN1C2=O [Compound 149, (S)-3-(4-((S)-1-(Chloromethyl)-5-hydroxy-1,2-dihydro-3H-benzo[e]indol-3-yl)-4-oxobutoxy)-2-methoxy-7,8,9,10-tetrahydrobenzo[e]-pyrido[1,2-a][1,4]diazepine-6,12(5H,6aH)-dione]	–	–	–	limited increase	–
COc1cc2c(cc1OCCCC(=O)N1C[C@@H](CCl)c3c1cc(OC(=O)N1CCN(C)CC1)c1ccccc31)NC(=O)[C@@H]1CCCCN1C2=O [Compound 150, (S)-1-(Chloromethyl)-3-(4-(((S)-2-methoxy-6,12-dioxo-5,6,6a,7,8,9,10,12-octahydrobenzo[e]pyrido[1,2-a][1,4]diazepin-3-yl)oxy)butanoyl)-2,3-dihydro-1H-benzo[e]indol-5-yl 4-methylpiperazine-1-carboxylate]	–	–	–	negligible DNA stabilisation; also recorded: do not increase	–
COc1cc2c(cc1OCCCC(=O)N1C[C@@H](C)c3c1cc(O)c1ccccc31)N=C[C@@H]1CCCCN1C2=O [Compound 152, (S)-3-(4-((S)—S-Hydroxy-1-methyl-1,2-dihydro-3H-benzo[e]indol-3-yl)-4-oxobutoxy)-2-methoxy-7,8,9,10-tetrahydrobenzo[e]pyrido[1,2-a][1,4]diazepin-12(6aH)-one]	–	–	–	limited increase	ΔTm compared to the active G-A cross-linker 42 ([6]; three sequences of FIG. 17): large decrease in the ΔTm value

— US20240002379A1, “ASYMMETRIC CONJUGATE COMPOUNDS” (Pheon Therapeutics Ltd., priority 2016, published 2024)
